Reference: US11839613B2, “Pyrimidine derivatives as PGE2 receptor modulators” (IDORSIA PHARMACEUTICALS LTD, priority 2017, dated 2023)

Legend:
PTGER2 (EP2) = PTGER2 (EP2) (Homo sapiens (Human), UniProt P43116); experiment: hEP2 b-arrestin assay (PathHunter HEK 293 PTGER2 b-arrestin cells); assay type: cell-based; details: antagonistic activity, beta-arrestin assay; read-out: hEP2 b-arr IC50
Procedure: Plate is pre-incubated 15 minutes at 37° C. Then five microliters of PGE2 (final conc. 5 μM) are transferred into the assay plate. Plate is incubated 120 minutes at 37° C.
(each concentration is measured in duplicate)

PTGER4 (EP4) = PTGER4 (EP4) (Homo sapiens (Human), UniProt P35408); experiment: cell-based
Sequence of PTGER4 (EP4) (P35408 whole entry): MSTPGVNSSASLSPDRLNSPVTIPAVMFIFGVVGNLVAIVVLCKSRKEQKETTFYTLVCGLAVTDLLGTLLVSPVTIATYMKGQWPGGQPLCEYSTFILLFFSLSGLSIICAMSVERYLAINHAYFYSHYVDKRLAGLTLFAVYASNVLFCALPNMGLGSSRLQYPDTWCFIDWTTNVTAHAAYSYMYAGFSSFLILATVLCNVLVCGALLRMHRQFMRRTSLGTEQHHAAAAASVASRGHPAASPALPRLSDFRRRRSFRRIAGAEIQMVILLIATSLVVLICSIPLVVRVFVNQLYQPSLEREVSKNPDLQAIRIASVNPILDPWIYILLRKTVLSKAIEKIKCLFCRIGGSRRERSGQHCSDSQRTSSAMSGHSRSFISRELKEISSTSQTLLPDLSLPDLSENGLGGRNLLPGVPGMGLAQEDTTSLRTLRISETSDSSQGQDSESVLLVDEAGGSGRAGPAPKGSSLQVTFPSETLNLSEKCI

Sequence of PTGER2 (EP2) (P43116 whole entry): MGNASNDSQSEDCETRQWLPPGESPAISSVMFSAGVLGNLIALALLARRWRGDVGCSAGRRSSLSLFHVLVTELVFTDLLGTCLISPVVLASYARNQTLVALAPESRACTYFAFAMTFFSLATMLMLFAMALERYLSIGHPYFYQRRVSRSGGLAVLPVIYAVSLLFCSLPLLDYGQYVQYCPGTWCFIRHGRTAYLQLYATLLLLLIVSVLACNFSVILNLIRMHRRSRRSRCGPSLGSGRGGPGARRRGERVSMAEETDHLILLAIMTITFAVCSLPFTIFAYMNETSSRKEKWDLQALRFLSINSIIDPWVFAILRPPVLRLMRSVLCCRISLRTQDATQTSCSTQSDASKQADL

| SMILES | IC50 (PTGER2 (EP2)) [nM] | IC50 (PTGER4 (EP4)) [nM] |
| --- | --- | --- |
| CCCc1cc(-c2cc(NCCc3cc4ccsc4c(F)c3OC)ncn2)ccc1CC(=O)O [Example 486, (4-{6-[2-(7-Fluoro-6-methoxy-benzo[b]thiophen-5-yl)-ethylamino]-pyrimidin-4-yl}-2-propyl-phenyl)-acetic acid] | 95 | 136 |
| CCOc1cc(-c2cc(NCCc3cc(C(F)(F)F)c4sccc4c3)ncn2)sc1C(=O)O [Example 488, 3-Ethoxy-5-{6-[2-(7-trifluoromethyl-benzo[b]thiophen-5-yl)-ethylamino]-pyrimidin-4-yl}-thiophene-2-carboxylic acid] | 723 | 45 |
| CCOc1cc(-c2cc(NCCc3ccc4scc(Cl)c4c3)ncn2)ccc1C(=O)O [Example 490, 4-{6-[2-(3-Chloro-benzo[b]thiophen-5-yl)-ethylamino]-pyrimidin-4-yl}-2-ethoxy-benzoic acid] | 90 | 144 |
| CC(C)Oc1cc(-c2cc(NCCc3cc(F)c4sccc4c3)ncn2)ccc1C(=O)O [Example 491, 4-{6-[2-(7-Fluoro-benzo[b]thiophen-5-yl)-ethylamino]-pyrimidin-4-yl}-2-isopropoxy-benzoic acid] | 372 | 148 |
| CC(C)Oc1cc(-c2cc(NCCc3ccc4sccc4c3F)ncn2)ccc1C(=O)O [Example 492, 4-{6-[2-(4-Fluoro-benzo[b]thiophen-5-yl)-ethylamino]-pyrimidin-4-yl}-2-isopropoxy-benzoic acid] | 204 | 142 |
| COc1cc2c(cc1CCNc1cc(-c3ccc(C(=O)O)c(OC(C)C)c3)ncn1)OCCO2 [Example 493, 2-Isopropoxy-4-{6-[2-(7-methoxy-2,3-dihydro-benzo[1,4]dioxin-6-yl)-ethylamino]-pyrimidin-4-yl}-benzoic acid] | 642 | 497 |
| O=C(O)c1ccc(-c2cc(NCCc3cc4c(cc3OC(F)F)OCCO4)ncn2)cc1OC1CCC1 [Example 494, 2-Cyclobutoxy-4-{6-[2-(7-difluoromethoxy-2,3-dihydro-benzo[1,4]dioxin-6-yl)-ethylamino]-pyrimidin-4-yl}-benzoic acid] | 340 | 209 |
| CSc1cc(-c2cc(NCCc3cc4c(cc3OC(F)F)OCCO4)ncn2)ccc1C(=O)O [Example 495, 4-{6-[2-(7-Difluoromethoxy-2,3-dihydro-benzo[1,4]dioxin-6-yl)-ethylamino]-pyrimidin-4-yl}-2-methylsulfanyl-benzoic acid] | 77 | 193 |
| O=C(O)c1ccc(-c2cc(NCCc3cc(F)c4sccc4c3)ncn2)cc1 [Example 496, 4-{6-[2-(7-Fluoro-benzo[b]thiophen-5-yl)-ethylamino]-pyrimidin-4-yl}-benzoic acid] | 588 | 908 |
| COc1cc(-c2cc(NCCc3cc(F)c4sccc4c3)ncn2)ccc1C(=O)O [Example 497, 4-{6-[2-(7-Fluoro-benzo[b]thiophen-5-yl)-ethylamino]-pyrimidin-4-yl}-2-methoxy-benzoic acid] | 449 | 443 |
| CCCc1cc(-c2cc(NCCc3ccc4scc(Cl)c4c3)ncn2)ccc1CC(=O)O [Example 498, (4-{6-[2-(3-Chloro-benzo[b]thiophen-5-yl)-ethylamino]-pyrimidin-4-yl}-2-propyl-phenyl)-acetic acid] | 163 | 107 |
| O=C(O)Cc1ccc(-c2cc(NCCc3ccc4scc(Cl)c4c3)ncn2)cc1OC(F)(F)F [Example 499, (4-{6-[2-(3-Chloro-benzo[b]thiophen-5-yl)-ethylamino]-pyrimidin-4-yl}-2-trifluoromethoxy-phenyl)-acetic acid] | 180 | 169 |
| COc1cc2ccccc2c(C)c1CCNc1cc(-c2ccc(CC(=O)O)c(OC(F)(F)F)c2)ncn1 [Example 500, (4-{6-[2-(3-Methoxy-1-methyl-naphthalen-2-yl)-ethylamino]-pyrimidin-4-yl}-2-trifluoromethoxy-phenyl)-acetic acid] | 88 | 99 |
| CCCc1cc(-c2cc(NCCc3cc(F)c4scc(Cl)c4c3)ncn2)ccc1CC(=O)O [Example 501, (4-{6-[2-(3-Chloro-7-fluoro-benzo[b]thiophen-5-yl)-ethylamino]-pyrimidin-4-yl}-2-propyl-phenyl)-acetic acid] | 196 | 808 |
| CCOc1cc(-c2cc(NCCc3cc(F)c4scc(Cl)c4c3)ncn2)ccc1CC(=O)O [Example 502, (4-{6-[2-(3-Chloro-7-fluoro-benzo[b]thiophen-5-yl)-ethylamino]-pyrimidin-4-yl}-2-ethoxy-phenyl)-acetic acid] | 103 | 903 |
| C#Cc1cc2c(cc1CCNc1cc(-c3ccc(CC(=O)O)c(OC)c3)ncn1)OCCO2 [Example 503, (4-{6-[2-(7-Ethynyl-2,3-dihydro-benzo[1,4]dioxin-6-yl)-ethylamino]-pyrimidin-4-yl}-2-methoxy-phenyl)-acetic acid] | 102 | 157 |

| SMILES | IC50 (PTGER2 (EP2)) [nM] | IC50 (PTGER4 (EP4)) [nM] |
| --- | --- | --- |
| CCCc1cc(-c2cc(NCCc3ccc4c(c3C)OCCO4)ncn2)ccc1CC(=O)O [Example 504, (4-{6-[2-(5-Methyl-2,3-dihydro-benzo[1,4]dioxin-6-yl)-ethylamino]-pyrimidin-4-yl}-2-propyl-phenyl)-acetic acid] | 108 | 167 |
| COc1cc(-c2cc(NCCc3ccc4c(c3C)OCCO4)ncn2)ccc1CC(=O)O [Example 505, (2-Methoxy-4-{6-[2-(5-methyl-2,3-dihydro-benzo[1,4]dioxin-6-yl)-ethylamino]-pyrimidin-4-yl}-phenyl)-acetic acid] | 427 | 929 |
| CCOc1cc(-c2cc(NCCc3ccc4c(c3C)OCCO4)ncn2)ccc1CC(=O)O [Example 506, (2-Ethoxy-4-{6-[2-(5-methyl-2,3-dihydro-benzo[1,4]dioxin-6-yl)-ethylamino]-pyrimidin-4-yl}-phenyl)-acetic acid] | 172 | 332 |
| COc1cc(-c2cc(NCCc3ccc4c(c3C)OCCO4)ncn2)ccc1OCCC(=O)O [Example 507, 3-(2-Methoxy-4-{6-[2-(5-methyl-2,3-dihydro-benzo[1,4]dioxin-6-yl)-ethylamino]-pyrimidin-4-yl}-phenoxy)-propionic acid] | 170 | 209 |
| CCOc1cc(-c2cc(NCCc3ccc4c(c3C)OCCO4)ncn2)ccc1C(=O)O [Example 508, 2-Ethoxy-4-{6-[2-(5-methyl-2,3-dihydro-benzo[1,4]dioxin-6-yl)-ethylamino]-pyrimidin-4-yl}-benzoic acid] | 85 | 748 |
| Cc1c(CCNc2cc(-c3ccc(CC(=O)O)c(OC(F)(F)F)c3)ncn2)ccc2c1OCCO2 [Example 509, (4-{6-[2-(5-Methyl-2,3-dihydro-benzo[1,4]dioxin-6-yl)-ethylamino]-pyrimidin-4-yl}-2-trifluoromethoxy-phenyl)-acetic acid] | 29 | 356 |
| CCOc1cc2c(cc1CCNc1cc(-c3ccc(CC(=O)O)c(OC(F)F)c3)ncn1)OCCO2 [Example 510, (2-Difluoromethoxy-4-{6-[2-(7-ethoxy-2,3-dihydro-benzo[1,4]dioxin-6-yl)-ethylamino]-pyrimidin-4-yl}-phenyl)-acetic acid] | 45 | 194 |
| Cc1c(CCNc2cc(-c3ccc(CC(=O)O)c(OC(F)F)c3)ncn2)ccc2c1OCCO2 [Example 511, (2-Difluoromethoxy-4-{6-[2-(5-methyl-2,3-dihydro-benzo[1,4]dioxin-6-yl)-ethylamino]-pyrimidin-4-yl}-phenyl)-acetic acid] | 304 | 423 |
| CCOc1cc2c(cc1CCNc1cc(-c3ccc(CC(=O)O)c(CC)c3)ncn1)OCCO2 [Example 512, (4-{6-[2-(7-Ethoxy-2,3-dihydro-benzo[1,4]dioxin-6-yl)-ethylamino]-pyrimidin-4-yl}-2-ethyl-phenyl)-acetic acid] | 67 | 220 |
| CCc1cc(-c2cc(NCCc3ccc4c(c3C)OCCO4)ncn2)ccc1CC(=O)O [Example 513, (2-Ethyl-4-{6-[2-(5-methyl-2,3-dihydro-benzo[1,4]dioxin-6-yl)-ethylamino]-pyrimidin-4-yl}-phenyl)-acetic acid] | 158 | 347 |
| CCc1cc(-c2cc(NCCc3ccc4sccc4c3F)ncn2)ccc1CC(=O)O [Example 514, (2-Ethyl-4-{6-[2-(4-fluoro-benzo[b]thiophen-5-yl)-ethylamino]-pyrimidin-4-yl}-phenyl)-acetic acid] | 262 | 112 |
| CCc1cc(-c2cc(NCCc3ccc4c(c3C)OCCO4)ncn2)ccc1C(=O)O [Example 515, 2-Ethyl-4-{6-[2-(5-methyl-2,3-dihydro-benzo[1,4]dioxin-6-yl)-ethylamino]-pyrimidin-4-yl}-benzoic acid] | 67 | 893 |
| CCOc1cc2c(cc1CCNc1cc(-c3ccc(C(=O)O)c(CC)c3)ncn1)OCCO2 [Example 516, 4-{6-[2-(7-Ethoxy-2,3-dihydro-benzo[1,4]dioxin-6-yl)-ethylamino]-pyrimidin-4-yl}-2-ethyl-benzoic acid] | 23 | 930 |
| CCc1cc(-c2cc(NCCc3ccc4ccccc4c3C)ncn2)ccc1C(=O)O [Example 517, 2-Ethyl-4-{6-[2-(1-methyl-naphthalen-2-yl)-ethylamino]-pyrimidin-4-yl}-benzoic acid] | 108 | 288 |
| CCc1cc(-c2cc(NCCc3cc(F)c4sccc4c3)ncn2)ccc1C(=O)O [Example 518, 2-Ethyl-4-{6-[2-(7-fluoro-benzo[b]thiophen-5-yl)-ethylamino]-pyrimidin-4-yl}-benzoic acid] | 116 | 176 |
| Cc1c(CCNc2cc(-c3ccc(C(=O)O)c(OC4CC4)c3)ncn2)ccc2c1OCCO2 [Example 519, 2-Cyclopropoxy-4-{6-[2-(5-methyl-2,3-dihydro-benzo[1,4]dioxin-6-yl)-ethylamino]-pyrimidin-4-yl}-benzoic acid] | 19 | 262 |
